The subject of this data set is patients with high output shock. The note with it: in vivo.

Procedure: The investigators, clinical support staff, the patients and their families were unaware of the treatment assignment for the duration of the study.
Enrolled patients were randomized to receive the Study Drug infusion in normal saline calculated to run at a drip rate corresponding to an initial concentration of 20 ng/kg/min, plus the standard-of-care treatment for high output shock. The Study Drug was prepared in an opaque cellophane bag, the contents of which were unknown to the investigators, nurses or anyone else taking direct care of the patient. The Study Drug was administered for a total of 6 hours, with dose (and corresponding drip rate) adjustments made hourly. Study Drug dose adjustments were determined per a pre-specified protocol, based on the concomitant requirements of standard-of-care therapy (in all cases, norepinephrine infusion plus vasopressin, epinephrine and/or phenylephrine infusions) needed to maintain a mean arterial pressure (MAP) at or above 65 mm Hg, which is the standard practice at our institution. […] At the end of 6 hours, the Study Drug infusion was titrated off by being halved every 10 minutes until the Study Drug infusion dose was below 5 ng/kg/min, after which it was discontinued.
A small cohort of patients was analyzed, consistent with similar studies of this nature. […] An independent data and safety monitor (DSM) was assigned and reviewed all adverse events.

For `CC[C@H](C)[C@H](NC(=O)[C@H](Cc1ccc(O)cc1)NC(=O)[C@@H](NC(=O)[C@H](CCCNC(=N)N)NC(=O)[C@@H](N)CC(=O)O)C(C)C)C(=O)N[C@@H](Cc1cnc[nH]1)C(=O)N1CCC[C@H]1C(=O)N[C@@H](Cc1ccccc1)C(=O)O` [ATII, angiotensin II], the “Adverse events: Acidosis” value was determined as 2, the “Adverse events: Atrial Fibrillation” value came to 2, the “Adverse events: Blood or lymphatic disorders” value amounted to 3 and the “Adverse events: Cardiac disorders” value is recorded as 7. For the same molecule, the “Adverse events: Decreased urine output” value was determined as 3, the “Adverse events: Hypertension” value came to 2, the “Adverse events: Hypotension” value amounted to 2 and the “Adverse events: Metabolic disorders” value is recorded as 11. The “Adverse events: Other disorders” value is on record as 5, the “Adverse events: Renal disorders” value amounted to 6, the “Adverse events: Respiratory disorders” value stood at 3 and the “Adverse events: Wheezing” value is 1. The “Adverse events: Worsening AKI” value is 0; the “Adverse events: Worsening MOSF” value was found to be 2; the “Adverse events: Worsening respiratory failure” value turned out to be 1; the “hypertension, patients receiving ATII in whom it occurred” value is on record as 20%. The “patients in whom ATII infusion was discontinued due to hypertension” value was “^⋄ATII infusion was discontinued in two patients due to hypertension” and the tolerability entry is recorded as “well-tolerated”.

(Values after patent publication US11559559B2, “Angiotensin II alone or in combination for the treatment of hypotension” (The George Washington University a Congressionally …, priority 2013, dated 2023).)
